# Measurements reported in patent US20240181014A1 (priority 2021, published 2024).
# Read-outs that look alike come from different tables or passages of the source.
# Columns and labels:
# [1] = compounded ALA (injection, suppository, topical, troche; intravenous); cited from earlier work
# [2] = system: post-COVID-19 syndrome patients; format: in vivo, human
Structure (SMILES),safety concerns in available clinical reports [1],"blood oxygenation value pO2 at end of treatment ([2]; Example 4, patient) [mmHg]","status at control visit ([2]; Example 4, patient)","external oxygen supply ([2]; Example 4, patient, needed intermitted oxygenation before)","blood oxygenation value pO2 at room air ([2]; Example 4, patient, pO2 92 mmHg before) [mmHg]","breathing at end of treatment ([2]; Example 4, patient, severe difficulties to breath before)","breathing at end of treatment ([2]; Example 5, patient)","status at control visit ([2]; Example 5, patient)","blood oxygenation value pO2 at room air at end of treatment ([2]; Example 5, patient, pO2 93 mmHg before) [mmHg]","ability to work at end of treatment ([2]; Example 5, patient, unable to work due to extreme fatigue and cough before)"
"O=C(O)CCCC[C@@H]1CCSS1 [ALA, (R)-5-(1,2-Dithiolan-3-yl)pentanoic acid]",no serious safety concerns,–,–,–,–,–,–,–,–,–
CC[C@H](C)[C@H](NC(=O)[C@H](CO)NC(=O)[C@H](CC(N)=O)NC(=O)[C@H](CC(C)C)NC(=O)[C@H](Cc1ccc(O)cc1)NC(=O)[C@H](CCCCN)NC(=O)[C@H](CCCCN)NC(=O)[C@@H](NC(=O)[C@H](C)NC(=O)[C@H](CCSC)NC(=O)[C@H](CCC(N)=O)NC(=O)[C@H](CCCCN)NC(=O)[C@H](CCCNC(=N)N)NC(=O)[C@H](CC(C)C)NC(=O)[C@H](CCCNC(=N)N)NC(=O)[C@@H](NC(=O)[C@H](Cc1ccc(O)cc1)NC(=O)[C@H](CC(N)=O)NC(=O)[C@H](CC(=O)O)NC(=O)[C@@H](NC(=O)[C@H](Cc1ccccc1)NC(=O)[C@@H](NC(=O)[C@H](C)NC(=O)[C@H](CC(=O)O)NC(=O)[C@H](CO)NC(=O)[C@@H](N)Cc1c[nH]cn1)C(C)C)[C@@H](C)O)[C@@H](C)O)C(C)C)C(=O)N[C@@H](CC(C)C)C(=O)N[C@@H](CC(N)=O)C(N)=O [Aviptadil],–,97,considered healthy,off external oxygen supply,96,breathed normally,breathed normally,considered healthy without any further post-COVID symptoms,98,returned to their professional work
